Test results taken from PubChem BioAssay AID1963834 (Molecular Pharmacology Branch, DTP, NCI, 2024).

Test system: 873145-292-R-J1-PDC complex spheroid viability
Assay: Anticancer human tumor 873145-292-R-J1-PDC patient-derived renal clear cell carcinoma cell line growth inhibition [POLQ]
Conditions: for IC50: curve of first compound; for viability, T/C: stronger effect = lower value
How it was run: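 Complex spheroid viability model combining PDC tumour cells with endothelial (HUVEC) and MSC stromal cells. Novobiocin, ART-558 or RP6685 were tested singly and in combination with standard and investigational anticancer drugs. Each was titrated in half-log steps from near clinical Cmax, or from 10 microM where Cmax was unknown.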

[1] = second compound 0.0316 µM, first compound 0.0316 µM
[2] = second compound 0.0316 µM, first compound 0.1 µM
[3] = second compound 0.1 µM, first compound 0.0316 µM
[4] = second compound 0.1 µM, first compound 0.1 µM
[5] = second compound 0.316 µM, first compound 0.0316 µM
[6] = second compound 0.316 µM, first compound 0.1 µM
[7] = second compound 1 µM, first compound 0.0316 µM
[8] = second compound 1 µM, first compound 0.1 µM
[9] = second compound 3.16 µM, first compound 0.0316 µM
[10] = second compound 3.16 µM, first compound 0.1 µM
[11] = second compound 10 µM, first compound 0.0316 µM
[12] = second compound 10 µM, first compound 0.1 µM
[13] = second compound 0.0316 µM, first compound 0.316 µM
[14] = second compound 0.0316 µM, first compound 1 µM
[15] = second compound 0.0316 µM, first compound 3.16 µM
[16] = second compound 0.0316 µM, first compound 10 µM
[17] = second compound 0.1 µM, first compound 0.316 µM
[18] = second compound 0.1 µM, first compound 1 µM
[19] = second compound 0.1 µM, first compound 3.16 µM
[20] = second compound 0.1 µM, first compound 10 µM
[21] = second compound 0.316 µM, first compound 0.316 µM
[22] = second compound 0.316 µM, first compound 1 µM
[23] = second compound 0.316 µM, first compound 3.16 µM
[24] = second compound 0.316 µM, first compound 10 µM
[25] = second compound 1 µM, first compound 0.316 µM
[26] = second compound 1 µM, first compound 1 µM
[27] = second compound 1 µM, first compound 3.16 µM
[28] = second compound 1 µM, first compound 10 µM
[29] = second compound 3.16 µM, first compound 0.316 µM
[30] = second compound 3.16 µM, first compound 1 µM
[31] = second compound 3.16 µM, first compound 3.16 µM
[32] = second compound 3.16 µM, first compound 10 µM
[33] = second compound 10 µM, first compound 0.316 µM
[34] = second compound 10 µM, first compound 1 µM
[35] = second compound 10 µM, first compound 3.16 µM
[36] = second compound 10 µM, first compound 10 µM
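Further: spheroids exposed to compounds for 7 days before viability readout.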
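Wherever viability, T/C is given: luminescence signal used as surrogate for viable cell content; 100% = DMSO vehicle control viability.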

`Cn1ncnc1[C@H]1c2n[nH]c(=O)c3cc(F)cc(c23)N[C@@H]1c1ccc(F)cc1` + Cc1cccc(N(C)C(=O)C2C(O)CCN2c2nc(C)cc(C(F)(F)F)c2C#N)c1 was tested, and the IC50 (second compound 0.0316 µM) was > 0.1 µM, the IC50 (second compound 0.1 µM) was > 0.1 µM and the IC50 (second compound 0.316 µM) was > 0.1 µM. For the same molecule, the IC50 (second compound 1 µM) was > 0.1 µM, the IC50 (second compound 3.16 µM) was > 0.1 µM and the IC50 (second compound 10 µM) was > 0.1 µM. The viability, T/C (second compound 0.0316 µM, first compound 0.000316 µM) was 104%, the viability, T/C (second compound 0.0316 µM, first compound 0.001 µM) was 94% and the viability, T/C (second compound 0.0316 µM, first compound 0.00316 µM) was 102%. The viability, T/C (second compound 0.0316 µM, first compound 0.01 µM) was 97.5%, the viability, T/C [1] was 95.7% and the viability, T/C [2] was 98%. For the same molecule, the viability, T/C (second compound 0.1 µM, first compound 0.000316 µM) was 104%, the viability, T/C (second compound 0.1 µM, first compound 0.001 µM) was 103% and the viability, T/C (second compound 0.1 µM, first compound 0.00316 µM) was 91.6%. For the same molecule, the viability, T/C (second compound 0.1 µM, first compound 0.01 µM) was 93.9%, the viability, T/C [3] was 105% and the viability, T/C [4] was 88.5%. It also gave a viability, T/C (second compound 0.316 µM, first compound 0.000316 µM) of 112%, a viability, T/C (second compound 0.316 µM, first compound 0.001 µM) of 99% and a viability, T/C (second compound 0.316 µM, first compound 0.00316 µM) of 87.6%. The viability, T/C (second compound 0.316 µM, first compound 0.01 µM) was 89.6%, the viability, T/C [5] was 91.7% and the viability, T/C [6] was 89.3%. It also gave a viability, T/C (second compound 1 µM, first compound 0.000316 µM) of 102%, a viability, T/C (second compound 1 µM, first compound 0.001 µM) of 95.2% and a viability, T/C (second compound 1 µM, first compound 0.00316 µM) of 105%. It also gave a viability, T/C (second compound 1 µM, first compound 0.01 µM) of 97%, a viability, T/C [7] of 97.7% and a viability, T/C [8] of 96.3%. For the same molecule, the viability, T/C (second compound 3.16 µM, first compound 0.000316 µM) was 97%, the viability, T/C (second compound 3.16 µM, first compound 0.001 µM) was 96.3% and the viability, T/C (second compound 3.16 µM, first compound 0.00316 µM) was 105%. The viability, T/C (second compound 3.16 µM, first compound 0.01 µM) was 93.5%, the viability, T/C [9] was 99.8% and the viability, T/C [10] was 91.8%. It also gave a viability, T/C (second compound 10 µM, first compound 0.000316 µM) of 103%, a viability, T/C (second compound 10 µM, first compound 0.001 µM) of 89.7% and a viability, T/C (second compound 10 µM, first compound 0.00316 µM) of 109%. It also gave a viability, T/C (second compound 10 µM, first compound 0.01 µM) of 90.3%, a viability, T/C [11] of 97.8% and a viability, T/C [12] of 86.9%.
`COc1cc2cc(C(=O)CCC(=O)O)sc2cc1OC` + Cc1cccc(N(C)C(=O)C2C(O)CCN2c2nc(C)cc(C(F)(F)F)c2C#N)c1 was tested, and the IC50 (second compound 0.0316 µM) was > 10 µM, the IC50 (second compound 0.1 µM) was > 10 µM and the IC50 (second compound 0.316 µM) was > 10 µM. The IC50 (second compound 1 µM) was > 10 µM, the IC50 (second compound 3.16 µM) was > 10 µM and the IC50 (second compound 10 µM) was > 10 µM. The viability, T/C [1] was 103%, the viability, T/C [2] was 106% and the viability, T/C [13] was 111%. It also gave a viability, T/C [14] of 105%, a viability, T/C [15] of 101% and a viability, T/C [16] of 104%. It also gave a viability, T/C [3] of 97.9%, a viability, T/C [4] of 115% and a viability, T/C [17] of 96.9%. The viability, T/C [18] was 92.1%, the viability, T/C [19] was 98.8% and the viability, T/C [20] was 107%. It also gave a viability, T/C [5] of 98.3%, a viability, T/C [6] of 110% and a viability, T/C [21] of 95.1%. The viability, T/C [22] was 96.1%, the viability, T/C [23] was 93.5% and the viability, T/C [24] was 97.6%. It also gave a viability, T/C [7] of 101%, a viability, T/C [8] of 98.7% and a viability, T/C [25] of 94%. It also gave a viability, T/C [26] of 100%, a viability, T/C [27] of 95.6% and a viability, T/C [28] of 103%. The viability, T/C [9] was 89%, the viability, T/C [10] was 117% and the viability, T/C [29] was 102%. It also gave a viability, T/C [30] of 99.4%, a viability, T/C [31] of 98.4% and a viability, T/C [32] of 101%. For the same molecule, the viability, T/C [11] was 98.2%, the viability, T/C [12] was 95.9% and the viability, T/C [33] was 102%. For the same molecule, the viability, T/C [34] was 97.7%, the viability, T/C [35] was 104% and the viability, T/C [36] was 103%.
`CCc1cc2c(N3CCc4c(cc(Cn5ccnc5)cc4-c4cn(C)nc4C(F)(F)F)C3=O)cc(C)nc2c(OC)n1` + COC1C(OC(N)=O)C(O)C(Oc2ccc3c(O)c(NC(=O)c4ccc(O)c(CC=C(C)C)c4)c(=O)oc3c2C)OC1(C)C was tested, and the IC50 (second compound 0.0316 µM) was > 10 µM, the IC50 (second compound 0.1 µM) was > 10 µM and the IC50 (second compound 0.316 µM) was > 10 µM. The IC50 (second compound 1 µM) was > 10 µM, the IC50 (second compound 3.16 µM) was > 10 µM and the IC50 (second compound 10 µM) was > 10 µM. For the same molecule, the viability, T/C [1] was 96%, the viability, T/C [2] was 98.1% and the viability, T/C [13] was 93.6%. For the same molecule, the viability, T/C [14] was 99.2%, the viability, T/C [15] was 86.6% and the viability, T/C [16] was 83%. The viability, T/C [3] was 92.5%, the viability, T/C [4] was 105% and the viability, T/C [17] was 96.4%. It also gave a viability, T/C [18] of 88.5%, a viability, T/C [19] of 90.4% and a viability, T/C [20] of 79.8%. It also gave a viability, T/C [5] of 113%, a viability, T/C [6] of 97.5% and a viability, T/C [21] of 94.3%. It also gave a viability, T/C [22] of 90.8%, a viability, T/C [23] of 89.2% and a viability, T/C [24] of 83.3%. The viability, T/C [7] was 99.4%, the viability, T/C [8] was 106% and the viability, T/C [25] was 78.8%. The viability, T/C [26] was 84.7%, the viability, T/C [27] was 83.6% and the viability, T/C [28] was 84.2%. For the same molecule, the viability, T/C [9] was 99.6%, the viability, T/C [10] was 93% and the viability, T/C [29] was 99.8%. The viability, T/C [30] was 82.7%, the viability, T/C [31] was 77.5% and the viability, T/C [32] was 74%. It also gave a viability, T/C [11] of 88.1%, a viability, T/C [12] of 82.8% and a viability, T/C [33] of 101%. The viability, T/C [34] was 77.7%, the viability, T/C [35] was 92.6% and the viability, T/C [36] was 96.2%.
